Laboratory results: publication PMC6627197, “Development of a High Throughput Screen for the Identification of Inhibitors of Peptidoglycan O-Acetyltransferases, New Potential Antibacterial Targets” (Antibiotics, 2019)
Converted amounts (≈) assume the structure as drawn. “Also recorded” adds a separate entry of the source. Like-named read-outs stand apart in the source and are kept apart here.

What was measured:
NgPatB [1] = molecular target: T1, NgPatB (Neisseria gonorrhoeae, UniProt Q5F966); experiment: NgPatB esterase inhibition, fluorometric assay with 4MU-Ac as substrate (HTS, dose response, Ki); format: biochemical; conditions: for activity at 10 µM: pH 7, read-out: NgPatB 4MU-Ac 1° Screen (% RA); for Mode of inhibition of NgPatB: 4MU-Ac as substrate, double reciprocal plot
Protocol: Determinations of Ki and mode of inhibition of NgPatBΔ100 were conducted using 4MU-Ac as a substrate. […] Initial velocities of substrate hydrolysis were obtained by fluorescence emission at 420 nm (390 nm excitation).
A large scale HTS was conducted at the SPARC BioCentre Drug Discovery Facility (The Hospital for Sick Children, Toronto, Canada) to identify additional inhibitors of PatBΔ100 acetylesterase activity. A total of 68,928 compounds were tested in singlicate, including 14,400 from the Maybridge HitFinder Collection, 50,000 from the ChemBridge DIVERset Collection, and 4,480 compounds representing plates 1–15 of the GlycoNET ChemBridge Collection maintained at the facility. The 4MU-Ac served as the substrate in the 384-well microtiter plate (NUNC 262260) fluorescent assay described above. The assay was optimized for use with this facility by altering enzyme and substrate concentrations, in addition to incubation times and reaction volume. As for the pilot screen, a Z’ for the assay was determined using Equation (1). […] This was followed by dispensing final concentrations of 20 µM compounds from the Maybridge HitFinder and ChemBridge DIVERset Collections or 10 µM compounds from the GlycoNET ChemBridge Collection using an Echo® 550 acoustic dispenser (Labcyte).

SaOatA [2] = molecular target: T2, SaOatA (Staphylococcus aureus, UniProt Q2FV54); experiment: biochemical; conditions: for activity at 10 µM: pH 7, read-out: SaOatA 4MU-Ac 1° Screen (% RA)
T2 sequence (Q2FV54 435-603): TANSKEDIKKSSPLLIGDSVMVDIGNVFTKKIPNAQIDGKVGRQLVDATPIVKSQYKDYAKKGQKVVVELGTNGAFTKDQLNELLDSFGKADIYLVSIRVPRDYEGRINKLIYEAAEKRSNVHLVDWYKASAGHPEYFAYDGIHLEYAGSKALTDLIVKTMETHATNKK

NgPatB [3] = molecular target: T1, NgPatB; experiment: NgPatB esterase inhibition, chromogenic assay with pNP-Ac as substrate; format: biochemical
Protocol: (§1) With fluorometric assays, fluorescence quenching by compounds in the libraries could lead to their false identification as inhibitors. Thus, to confirm their inhibitory activity, we also tested esculin, esculetin, and scopoletin as inhibitors of PatBΔ69 and SaOatAΔ435 esterase activity using the chromogenic pNP-Ac as substrate. […] .
(§2) Hits which were seen to affect NgPatBΔ100 esterase activity in a dose dependent manner were also tested as inhibitors of the enzyme (0.75 µM, final concentration) using 2 mM pNP-Ac as substrate to identify false positives, due to fluorescence quenching under similar assay conditions. Similarly, hits which were seen to affect SaOatAΔ445 esterase activity in a dose dependent manner were also tested as inhibitors of the enzyme at 1.5 µM (final concentration) using 1.1 mM pNP-Ac.

SaOatA [4] = molecular target: T2, SaOatA; experiment: SaOatA esterase inhibition, chromogenic assay with pNP-Ac as substrate; format: biochemical
Protocol: as §1, §2

SaOatA [5] = molecular target: T2, SaOatA; conditions: cited from earlier work
[6] = Solubility limit in growth assays
N. gonorrhoeae FA1090 = experiment: Microtiter plate growth / MIC assay, N. gonorrhoeae
E. coli BL21 = experiment: Microtiter plate growth / MIC assay, E. coli (negative control organism); conditions: for Effect on growth of E. coli: within solubility limits
SaOatA [7] = molecular target: T2, SaOatA; conditions: 10 µM
S. aureus ATCC 6538 = experiment: Microtiter plate growth / MIC assay, S. aureus; conditions: Staphylococcus aureus, ATCC6538, read-out: Growth of S. aureus ATCC 6538, % of control growth level reached
NgPatB [8] = molecular target: T1, NgPatB; format: biochemical; conditions: 3 µM enzyme, pH 7.0
SaOatA [9] = molecular target: SaOatA (Staphylococcus aureus, UniProt Q2FV54); format: biochemical; conditions: variant SaOatA445 (SaOatAΔ445), 5 µM enzyme, pH 6.5
[10] = read-out: SaOatA 4MU-Ac IC50, 4MU-Ac as substrate, values marked 2 in Table 1
[11] = listed as benzothiazolyl-pyrazolo-pyridine

T1 sequence (Q5F966 entry or part of it): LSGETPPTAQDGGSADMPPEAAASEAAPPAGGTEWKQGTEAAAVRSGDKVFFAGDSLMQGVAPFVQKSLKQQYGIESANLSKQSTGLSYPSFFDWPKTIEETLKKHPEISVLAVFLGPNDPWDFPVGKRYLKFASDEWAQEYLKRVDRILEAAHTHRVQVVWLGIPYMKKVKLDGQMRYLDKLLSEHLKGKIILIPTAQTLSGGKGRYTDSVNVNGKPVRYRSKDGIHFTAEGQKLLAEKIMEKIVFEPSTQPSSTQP

Structure (SMILES) | activity at 10 µM (NgPatB [1]) | activity at 10 µM (SaOatA [2]) | IC50 (NgPatB [1]) | IC50 (NgPatB [3]) | IC50 (SaOatA [4]) | IC50 (SaOatA [5]; [10]) | further results
O=c1ccc2ccccc2o1 [Coumarin, 1,2-benzopyrone] | 82.5% | 106% | – | – | – | – | –
COc1cc2ccc(=O)oc2cc1O [Scopoletin] | 30% | 21.4% | 47.9 ± 4 µM | 792 ± 7 µM | 1170 ± 100 µM | 103 ± 1.1 µM | solubility [6]: 480 µg/mL (≈ 2500 µM)
Cc1cc(=O)oc2cc(O)c(O)cc12 [4-Me-esculetin] | 92% | 98.3% | – | – | – | – | –
CCCCn1c(C)c2c(=O)n(-c3nc4ccccc4s3)[nH]c2cc1=O [Compound 89224] | 78.8% | 99.8% | 22.1 ± 1.2 µM | – | – | – | Ki (NgPatB [1]): 126 ± 19 µM; Mode of inhibition of NgPatB (NgPatB [1]): mixed/non-competitive inhibitor; Mode of inhibition of NgPatB (NgPatB [1]; [11]): non-competitive inhibitor; solubility [6]: ~177 µg/mL (≈ 499 µM); Reduction in growth of N. gonorrhoeae (N. gonorrhoeae FA1090; 177 µg/mL, OD 600 nm vs control lacking compound): 90%; Effect on growth of E. coli (E. coli BL21): did not affect the growth; also recorded: not affected; Effect on growth of E. coli (E. coli BL21; [11]): unaffected
O=c1ccc2ccc(O)cc2o1 [Umbelliferone, 7-hydroxycoumarin] | – | – | 530 ± 70 µM | > 3000 µM | > 3000 µM | 98.5 ± 1.1 µM | –
O=C1c2ccccc2C(=O)c2c(O)c(O)cc(O)c21 [purpurin, 1,2,4-trihydroxy-anthraquinone, reference compound] | – | – | – | – | – | – | Identified in pilot HTS as inhibitor of NgPatB (NgPatB [1]; pilot HTS, 10 µM): not identified; Identified in pilot HTS as inhibitor of SaOatA (SaOatA [7]): not identified; IC50 (SaOatA [5]; read-out: IC50 for SaOatA, earlier preliminary characterization): ~1100 µM
COc1cc2oc(=O)ccc2cc1O [Isoscopoletin] | 53.5% | 115% | – | – | – | – | –
O=c1ccc2cc(O)c(O)cc2o1 [Esculetin] | 55.7% | 71% | 53.1 ± 1 µM | 853 ± 79 µM | 600 ± 140 µM | 106 ± 1.2 µM | Ki (NgPatB [1]): 86.7 ± 4.7 µM; Mode of inhibition of NgPatB (NgPatB [1]): competitive inhibitor; activity at 512 µg/mL (S. aureus ATCC 6538): 10%; activity at 512 µg/mL (N. gonorrhoeae FA1090; Neisseria gonorrhoeae, FA1090, read-out: Growth of N. gonorrhoeae FA1090, % of control growth level reached): 25%; MIC (E. coli BL21; Escherichia coli, BL21, read-out: MIC, E. coli BL21): 512 µg/mL (≈ 2870 µM)
Cc1cc(=O)oc2cc(O)ccc12 [Hymercrome, 7-hydroxy-4-methyl-coumarin, reference compound] | 42.9% | 67.8% | 615 ± 10 µM | > 3000 µM | > 3000 µM | – | IC50 (SaOatA [2]): > 3000 µM
O=c1ccc2cc(O[C@@H]3O[C@H](CO)[C@@H](O)[C@H](O)[C@H]3O)c(O)cc2o1 [Esculin] | – | – | 49.7 ± 3 µM | 923 ± 9 µM | 1350 ± 150 µM | 75.8 ± 1 µM | remaining activity at 10 µM (NgPatB [1]; read-out: NgPatB 4MU-Ac 1° Screen (% RA)): 38.4%; remaining activity at 10 µM (SaOatA [2]; read-out: SaOatA 4MU-Ac 1° Screen (% RA)): 47.8%; solubility [6]: 2050 µg/mL (≈ 6020 µM)
CC(=O)Oc1ccc([N+](=O)[O-])cc1 [pNP-Ac, p-nitrophenyl acetate] | – | – | – | – | – | – | Km (NgPatB [8]; variant NgPatB69 (NgPatBΔ69)): 1770 µM; kcat (NgPatB [8]; variant NgPatB69 (NgPatBΔ69)): 0.14 sec‐1; Km (NgPatB [8]; variant NgPatB100 (NgPatBΔ100)): 2060 µM; kcat (NgPatB [8]; variant NgPatB100 (NgPatBΔ100)): 0.44 sec‐1; Km (SaOatA [9]): 1140 µM; kcat (SaOatA [9]): 0.047 sec‐1
